Measurements taken from patent publication US10004701B2, “Methods and compositions for treating infection” (UNIVERSITY OF ROCHESTER, priority 2012, dated 2018).
Counter-ions that a name gives are not always drawn. Like-named read-outs stand apart in the source and are kept apart here.

Experiments:
Experiment in all cases: AK assay 384-well format, Prestwick library screening
[1] = system: E. cloacae; type: cell-based, Enterobacter cloacae; conditions: 50 μM final drug concentration; for fold induction at 50 µM: Enterobacter cloacae, 3 h
[2] = system: E. faecium; type: cell-based, Enterococcus faecium; conditions: 50 μM final drug concentration; for fold induction at 50 µM: Enterococcus faecium, 3 h
[3] = system: P. aeruginosa; type: cell-based, Pseudomonas aeruginosa; conditions: 50 μM final drug concentration; for fold induction at 50 µM: Pseudomonas aeruginosa, 3 h
[4] = system: S. aureus strain USA300-0114; type: cell-based, Staphylococcus aureus; conditions: 50 μM final drug concentration; for fold induction at 50 µM: Staphylococcus aureus, USA300, 3 h
[5] = system: E. coli; type: cell-based, Escherichia coli; conditions: 50 μM final drug concentration; for fold induction at 50 µM: Escherichia coli, 3 h
[6] = system: A. baumannii strain 98-37-09; type: cell-based, Acinetobacter baumannii; conditions: 50 μM final drug concentration; for fold induction at 50 µM: Acinetobacter baumannii, 983709, 3 h
[7] = system: K. pneumoniae; type: cell-based, Klebsiella pneumoniae; conditions: 50 μM final drug concentration; for fold induction at 50 µM: Klebsiella pneumoniae, 3 h
[8] = cutoff for positive-scoring molecules 3-fold increase
[9] = 384-well format, cutoff for positive-scoring molecules 3-fold increase, read-out: AK-based Prestwick Library Screening Results, E. cloacae (increase in extracellular AK activity)
[10] = 384-well format, cutoff for positive-scoring molecules 3-fold increase, read-out: AK-based Prestwick Library Screening Results, E. faecium (increase in extracellular AK activity)
[11] = 384-well format, cutoff for positive-scoring molecules 3-fold increase, read-out: AK-based Prestwick Library Screening Results, P. aeruginosa (increase in extracellular AK activity)
[12] = 384-well format, cutoff for positive-scoring molecules 3-fold increase, read-out: AK-based Prestwick Library Screening Results, S. aureus (increase in extracellular AK activity)
[13] = 384-well format, cutoff for positive-scoring molecules 3-fold increase, read-out: AK-based Prestwick Library Screening Results, E. coli (increase in extracellular AK activity)
[14] = 384-well format, cutoff for positive-scoring molecules 3-fold increase, read-out: AK-based Prestwick Library Screening Results, A. baumannii (increase in extracellular AK activity)
[15] = 384-well format, cutoff for positive-scoring molecules 3-fold increase, read-out: AK-based Prestwick Library Screening Results, K. pneumoniae (increase in extracellular AK activity)
[16] = planktonic E. cloacae, 384-well, cutoff for positive-scoring molecules 3-fold increase, read-out: AK-based Prestwick Library Screening Results: E. cloacae (increase in extracellular AK activity)
[17] = planktonic E. faecium, 384-well, cutoff for positive-scoring molecules 3-fold increase, read-out: AK-based Prestwick Library Screening Results: E. faecium (increase in extracellular AK activity)
[18] = planktonic P. aeruginosa, 384-well, cutoff for positive-scoring molecules 3-fold increase, read-out: AK-based Prestwick Library Screening Results: P. aeruginosa (increase in extracellular AK activity)
[19] = planktonic S. aureus, 384-well, cutoff for positive-scoring molecules 3-fold increase, read-out: AK-based Prestwick Library Screening Results: S. aureus (increase in extracellular AK activity)
[20] = planktonic E. coli, 384-well, cutoff for positive-scoring molecules 3-fold increase, read-out: AK-based Prestwick Library Screening Results: E. coli (increase in extracellular AK activity)
[21] = planktonic A. baumannii, 384-well, cutoff for positive-scoring molecules 3-fold increase, read-out: AK-based Prestwick Library Screening Results: A. baumannii (increase in extracellular AK activity)
[22] = planktonic K. pneumoniae, 384-well, cutoff for positive-scoring molecules 3-fold increase, read-out: AK-based Prestwick Library Screening Results: K. pneumoniae (increase in extracellular AK activity)

With `COc1ccc2c(c1)N(C[C@H](C)CN(C)C)c1ccccc1S2.O=C(O)/C=C\C(=O)O` [Methotrimeprazine maleat salt] the “AK-based Prestwick Library Screening Results, E. cloacae (fold increase in extracellular AK activity)” value [1, 8] was 1.8, the “AK-based Prestwick Library Screening Results, E. faecium (fold increase in extracellular AK activity)” value [2, 8] was 1.0 and the “AK-based Prestwick Library Screening Results, P. aeruginosa (fold increase in extracellular AK activity)” value [3, 8] was 1.1. The “AK-based Prestwick Library Screening Results, S. aureus (fold increase in extracellular AK activity)” value [4, 8] was 1.2, the “AK-based Prestwick Library Screening Results, E. coli (fold increase in extracellular AK activity)” value [5, 8] was 1.3 and the “AK-based Prestwick Library Screening Results, A. baumannii (fold increase in extracellular AK activity)” value [6, 8] was 1.1. For the same molecule, the “AK-based Prestwick Library Screening Results, K. pneumoniae (fold increase in extracellular AK activity)” value [7, 8] was 1.0.

For `O=C(OCC(O)CO)c1ccccc1Nc1ccnc2cc(Cl)ccc12` (stereo not shown) [Glafenine hydrochloride], the fold induction at 50 µM ([1]; planktonic E. cloacae, 384-well, […], read-out: AK-based Prestwick Library Screening Results: E. cloacae (increase in extracellular AK activity)) was 1.5, the fold induction at 50 µM ([2]; planktonic E. faecium, 384-well, […], read-out: AK-based Prestwick Library Screening Results: E. faecium (increase in extracellular AK activity)) was 1.1 and the fold induction at 50 µM ([3]; planktonic P. aeruginosa, 384-well, […], read-out: AK-based Prestwick Library Screening Results: P. aeruginosa (increase in extracellular AK activity)) was 1.2. For the same molecule, the fold induction at 50 µM ([4]; planktonic S. aureus, 384-well, […], read-out: AK-based Prestwick Library Screening Results: S. aureus (increase in extracellular AK activity)) was 1.1, the fold induction at 50 µM ([5]; planktonic E. coli, 384-well, […], read-out: AK-based Prestwick Library Screening Results: E. coli (increase in extracellular AK activity)) was 1.2 and the fold induction at 50 µM ([6]; planktonic A. baumannii, 384-well, […], read-out: AK-based Prestwick Library Screening Results: A. baumannii (increase in extracellular AK activity)) was 1.1. It also gave a fold induction at 50 µM ([7]; planktonic K. pneumoniae, 384-well, […], read-out: AK-based Prestwick Library Screening Results: K. pneumoniae (increase in extracellular AK activity)) of 1.

Work on `Clc1cccc(Cl)c1N=C1NCCN1` [Clonidine hydrochloride] yielded a fold induction at 50 µM [1, 9] of 0.6, a fold induction at 50 µM [2, 10] of 0.9 and a fold induction at 50 µM [3, 11] of 0.5. It also gave a fold induction at 50 µM [4, 12] of 0.5, a fold induction at 50 µM [5, 13] of 0.5 and a fold induction at 50 µM [6, 14] of 0.6. The fold induction at 50 µM [7, 15] was 0.5.

`C[C@H](CCC(=O)O)[C@H]1CC[C@H]2[C@@H]3[C@H](O)C[C@@H]4C[C@H](O)CC[C@]4(C)[C@H]3CC[C@]12C` [Chenodiol] gave a fold induction at 50 µM [1, 16] of 1.5, a fold induction at 50 µM [2, 17] of 1 and a fold induction at 50 µM [3, 18] of 1.2. For the same molecule, the fold induction at 50 µM [4, 19] was 1.7, the fold induction at 50 µM [5, 20] was 1.2 and the fold induction at 50 µM [6, 21] was 1. It also gave a fold induction at 50 µM [7, 22] of 0.8.

`CC(=O)OCC(=O)[C@H]1CC[C@H]2[C@@H]3CC[C@H]4C[C@H](O)CC[C@]4(C)[C@H]3C(=O)C[C@]12C` [Alfadolone acetate] was tested, and the fold induction at 50 µM ([1]; planktonic E. cloacae, […], read-out: AK-based Prestwick library screening result, E. cloacae (fold increase in extracellular AK activity)) was 1.4, the fold induction at 50 µM ([2]; planktonic E. faecium, […], read-out: AK-based Prestwick library screening result, E. faecium (fold increase in extracellular AK activity)) was 1.1 and the fold induction at 50 µM ([3]; planktonic P. aeruginosa, […], read-out: AK-based Prestwick library screening result, P. aeruginosa (fold increase in extracellular AK activity)) was 1. It also gave a fold induction at 50 µM ([4]; planktonic S. aureus, […], read-out: AK-based Prestwick library screening result, S. aureus (fold increase in extracellular AK activity)) of 1, a fold induction at 50 µM ([5]; planktonic E. coli, […], read-out: AK-based Prestwick library screening result, E. coli (fold increase in extracellular AK activity)) of 1.2 and a fold induction at 50 µM ([6]; planktonic A. baumannii, […], read-out: AK-based Prestwick library screening result, A. baumannii (fold increase in extracellular AK activity)) of 1. It also gave a fold induction at 50 µM ([7]; planktonic K. pneumoniae, […], read-out: AK-based Prestwick library screening result, K. pneumoniae (fold increase in extracellular AK activity)) of 0.9.

With `CN(C)CCC=C1c2ccccc2COc2ccccc21` [Doxepin hydrochloride] the fold induction at 50 µM [1, 9] was 1, the fold induction at 50 µM [2, 10] was 1 and the fold induction at 50 µM [3, 11] was 1.1. It also gave a fold induction at 50 µM [4, 12] of 0.9, a fold induction at 50 µM [5, 13] of 1.1 and a fold induction at 50 µM [6, 14] of 0.9. It also gave a fold induction at 50 µM [7, 15] of 0.8.

`Cn1c([N+](=O)[O-])cnc1COC(N)=O` [Ronidazole] showed a fold induction at 50 µM ([1]; planktonic E. cloacae, positive cutoff 3-fold increase, read-out: AK-based Prestwick library screening result, E. cloacae (fold increase in extracellular AK activity)) of 1.6, a fold induction at 50 µM ([2]; planktonic E. faecium, positive cutoff 3-fold increase, read-out: AK-based Prestwick library screening result, E. faecium (fold increase in extracellular AK activity)) of 1.1 and a fold induction at 50 µM ([3]; planktonic P. aeruginosa, positive cutoff 3-fold increase, read-out: AK-based Prestwick library screening result, P. aeruginosa (fold increase in extracellular AK activity)) of 1. The fold induction at 50 µM ([4]; planktonic S. aureus, positive cutoff 3-fold increase, read-out: AK-based Prestwick library screening result, S. aureus (fold increase in extracellular AK activity)) was 1.3, the fold induction at 50 µM ([5]; planktonic E. coli, positive cutoff 3-fold increase, read-out: AK-based Prestwick library screening result, E. coli (fold increase in extracellular AK activity)) was 1.1 and the fold induction at 50 µM ([6]; planktonic A. baumannii, positive cutoff 3-fold increase, read-out: AK-based Prestwick library screening result, A. baumannii (fold increase in extracellular AK activity)) was 1.6. It also gave a fold induction at 50 µM ([7]; planktonic K. pneumoniae, positive cutoff 3-fold increase, read-out: AK-based Prestwick library screening result, K. pneumoniae (fold increase in extracellular AK activity)) of 1.7.

With `CCC1(c2ccc(N)cc2)CCC(=O)NC1=O` (stereo not shown) [Glutethimide, para-amino] the “AK-based Prestwick Library Screening Results, E. cloacae (increase in extracellular AK activity)” value ([1]; 384-well format, […]) was 0.5, the “AK-based Prestwick Library Screening Results, E. faecium (increase in extracellular AK activity)” value ([2]; 384-well format, […]) was 0.9 and the “AK-based Prestwick Library Screening Results, P. aeruginosa (increase in extracellular AK activity)” value ([3]; 384-well format, […]) was 0.6. The “AK-based Prestwick Library Screening Results, S. aureus (increase in extracellular AK activity)” value ([4]; 384-well format, […]) was 0.5, the “AK-based Prestwick Library Screening Results, E. coli (increase in extracellular AK activity)” value ([5]; 384-well format, […]) was 0.5 and the “AK-based Prestwick Library Screening Results, A. baumannii (increase in extracellular AK activity)” value ([6]; 384-well format, […]) was 0.6. The “AK-based Prestwick Library Screening Results, K. pneumoniae (increase in extracellular AK activity)” value ([7]; 384-well format, […]) was 0.6.

Work on `COc1cc(Cc2cnc(N)nc2N)cc(OC)c1OC` [Trimethoprim] yielded a fold induction at 50 µM [1, 16] of 7.2, a fold induction at 50 µM [2, 17] of 1.1 and a fold induction at 50 µM [3, 18] of 1.1. It also gave a fold induction at 50 µM [4, 19] of 1, a fold induction at 50 µM [5, 20] of 1.2 and a fold induction at 50 µM [6, 21] of 3.1. For the same molecule, the fold induction at 50 µM [7, 22] was 0.8.

In the case of `Cc1cnc(C(=O)NCCc2ccc(S(=O)(=O)NC(=O)NC3CCCCC3)cc2)cn1` [Glipizide], the fold induction at 50 µM [1, 16] is reported as 1.3, the fold induction at 50 µM [2, 17] is reported as 0.9 and the fold induction at 50 µM [3, 18] is reported as 1. The fold induction at 50 µM [4, 19] was 1.2, the fold induction at 50 µM [5, 20] was 1.2 and the fold induction at 50 µM [6, 21] was 1. For the same molecule, the fold induction at 50 µM [7, 22] was 0.8.
